Measured values taken from paper PMC1079851, “Cloning of the koi herpesvirus (KHV) gene encoding thymidine kinase and its use for a highly sensitive PCR based diagnosis” (BMC Microbiology, 2005).

Biological target: T1, KHV TK (recombinant thymidine kinase) (Cyprinid herpesvirus 3, UniProt Q8B3A9)
T1 construct: gene CyHV3_ORF55; E. coli ER2566, chitin column
Assay: DE-81 filter paper radiometric kinase assay
Assay type: biochemical
Details: ATP 10.0 mM, MgCl2 2.0 mM, Tris-Cl 140 mM, 37 °C; substrate 5-30 mM; labelled compound (methyl-3H)

## Cc1cn([C@H]2C[C@H](O)[C@@H](CO)O2)c(=O)[nH]c1=O [methyl-3H Thymidine (dThd)]
  DE-81 filter paper radiometric kinase assay: the enzyme is specifically active using methyl-^3H Thymidine (dThd)
